The subject of one assay is algae. As to the kind of experiment: Dosing of micro-mixed emulsion to cooling tower water: control of algae. As to conditions: 3 ppm isothiazolone in cooling water of cooling tower. Here is the method: A 50 wt. % solution of 4,5-dichloro-2-octyl-3-isothiazolone in benzyl alcohol is fed to an array of slit shaped interdigital micro-mixers at a feed rate of 50 mL/minute, combined with water fed to the micro-mixer at a feed rate of 600 mL/minute. The water contains no surfactants. The resulting emulsion exiting the micro-mixer it is directly dosed to cooling water in a 50,000 gallon […] cooling tower, where is effectively distributed and re-circulated throughout the cooling water. After about 20 minutes, the isothiazolone concentration in the cooling water reaches a desired concentration of 3 ppm and the emulsion feed is stopped. […] Focusing micro-mixers also produce similar results as compared to the micro-mixers described above. Melted 2-octyl-3-isothiazolone as a neat liquid is fed to an array of slit shaped interdigital micro-mixers at a feed rate of 50 mL/minute, combined with water fed to the micro-mixer at a feed rate of 600 mL/minute. The water contains no surfactants and solvents. The resulting emulsion exiting the micro-mixer it is directly dosed to cooling water in a 50,000 gallon […] cooling tower, where is effectively distributed and re-circulated throughout the cooling water. After about 20 minutes, the isothiazolone concentration in the cooling water reaches a desired concentration of 3 ppm and the emulsion feed is stopped. […]

The next assay relates to mold. As to the kind of experiment: Dosing of micro-mixed emulsion to paper pulp slurry tank: mold proofing of paper. Particulars: surfactant-free emulsion from 50 wt. % solution in benzyl alcohol (56 mL/minute) micro-mixed with water, charged to 10,000 liter pulp slurry tank. The protocol: A 10,000 liter pulp slurry tank has a continuous throughput averaging 6,600 liters/minute. A 50 wt. % solution of 4,5-dichloro-2-octyl-3-isothiazolone in benzyl alcohol is fed to an array of slit shaped interdigital micro-mixers at a feed rate of 56 mL/minute, combined with water fed to the micro-mixer at a feed rate of 600 mL/minute. The water contains no surfactants. The resulting emulsion exiting the micro-mixer is directly charged to water in the pulp slurry tank, where it is effectively distributed and re-circulated throughout the tank water. […] Focusing micro-mixers also produce similar results as compared to the micro-mixers described above.

In the case of `CCCCCCCCn1sccc1=O` [2-octyl-3-isothiazolone], the “control of algae in cooling water” value in the assay with algae (surfactant- and solvent-free emulsion from melted neat liquid micro-mixed with water) is on record as “Effective control of algae”. As for `CCCCCCCCn1sc(Cl)c(Cl)c1=O` [4,5-dichloro-2-octyl-3-isothiazolone], the “control of algae in cooling water” value with algae (surfactant-free emulsion from 50 wt. % solution in benzyl alcohol micro-mixed with water) was “Effective control of algae”. Besides, the “mold proofing in paper prepared from treated pulp” value in the assay with mold is “effective mold proofing”.
